Species on record: Rattus norvegicus
Test: Open TG-GATES - Regimen: Daily Repeat
Format: toxicity, organism-based, Sprague-Dawley
Design: regimen Daily Repeat, gender Male, age 6 weeks
Conditions: in vivo, po, route gavage; for ALT / AST / BUN / CRE / Ca / Cl / DBIL / GLC / IP / K / LDH / Na / PL / RALB / TBIL / TC / TG / TP / gamma-GTP / A/G / ALP: tissue Plasma; for APTT / Bas / Eos / Fbg / Hb / Ht / Lym / MCH / MCHC / MCV / Mono / Neu / PT / Plat / RBC / Ret / WBC: tissue Blood; for KIDNEY_L / KIDNEY_R / KIDNEY_TOTAL: tissue Kidney; for LIVER: tissue Liver
[1] = 30 mg/kg, […], dose level Low, time 14 day
[2] = 30 mg/kg, […], dose level Low, time 28 day
[3] = 100 mg/kg, 72 h, dose level Middle, time 3 day
[4] = 100 mg/kg, […], dose level Middle, time 7 day
[5] = 100 mg/kg, […], dose level Middle, time 14 day
[6] = 100 mg/kg, […], dose level Middle, time 28 day

## CCc1cc(C(N)=S)ccn1 [ETHIONAMIDE]
[1]
  ALT: 34.8 IU/L
  AST: 62.4 IU/L
  BUN: 17.6 mg/dL
  CRE: 0.5 mg/dL
  Ca: 10.8 mg/dL
  Cl: 104.4 meq/L
  DBIL: 0.026 mg/dL
  GLC: 206.6 mg/dL
  IP: 7.2 mg/dL
  K: 4.4 meq/L
  LDH: 95.4 IU/L
  Na: 142.2 meq/L
  PL: 152.2 mg/dL
  RALB: 4.1 g/dL
  TBIL: 0.3 mg/dL
  TC: 70.4 mg/dL
  TG: 107.6 mg/dL
  TP: 5.9 g/dL
  gamma-GTP: 1.8 IU/L
[2]
  A/G: 2.2
  ALP: 680.6 IU/L
  ALT: 35.8 IU/L
  AST: 60 IU/L
  BUN: 21.2 mg/dL
  CRE: 0.7 mg/dL
  Ca: 10.1 mg/dL
  Cl: 106 meq/L
  DBIL: 0.022 mg/dL
  GLC: 198.8 mg/dL
  IP: 6.3 mg/dL
  K: 4.6 meq/L
  LDH: 95.2 IU/L
  Na: 140.4 meq/L
  PL: 143.8 mg/dL
  RALB: 4.1 g/dL
  TBIL: 0.3 mg/dL
  TC: 71.4 mg/dL
  TG: 129 mg/dL
  TP: 6 g/dL
  gamma-GTP: 1.6 IU/L
[3]
  TERMINAL_BW: 233.1 g
  APTT: 17.5 s
  Bas: 0%
  Eos: 1%
  Fbg: 209 mg/dL
  Hb: 14.5 g/dL
  Ht: 42.6%
  Lym: 67%
  MCH: 21.7 pg
  MCHC: 33.9%
  MCV: 64 fL
  Mono: 10.8%
  Neu: 21.6%
  PT: 11.6 s
  Plat: 130 x10_4/uL
  RBC: 666.2 x10_4/ul
  Ret: 10.3%
  WBC: 119.1 x10_2/uL
  KIDNEY_L: 1.1 g
  KIDNEY_R: 1.1 g
  KIDNEY_TOTAL: 2.2 g
  LIVER: 12.4 g
  A/G: 2
  ALP: 951.2 IU/L
  ALT: 41.6 IU/L
  AST: 65.6 IU/L
  BUN: 17.4 mg/dL
  CRE: 0.5 mg/dL
  Ca: 10.5 mg/dL
  Cl: 104.2 meq/L
  DBIL: 0.032 mg/dL
  GLC: 197.6 mg/dL
  IP: 7.1 mg/dL
  K: 4.7 meq/L
  LDH: 94.2 IU/L
  Na: 140.8 meq/L
  PL: 125 mg/dL
  RALB: 3.6 g/dL
  TBIL: 0.2 mg/dL
  TC: 65.4 mg/dL
  TG: 59.2 mg/dL
  TP: 5.4 g/dL
  gamma-GTP: 1 IU/L
[4]
  TERMINAL_BW: 267.6 g
  APTT: 17 s
  Bas: 0%
  Eos: 1%
  Fbg: 212 mg/dL
  Hb: 14.2 g/dL
  Ht: 42.3%
  Lym: 68.6%
  MCH: 20.9 pg
  MCHC: 33.7%
  MCV: 62.1 fL
  Mono: 8.6%
  Neu: 21.6%
  PT: 11.7 s
  Plat: 148.8 x10_4/uL
  RBC: 681.8 x10_4/ul
  Ret: 3.6%
  WBC: 136.5 x10_2/uL
  KIDNEY_L: 1.1 g
  KIDNEY_R: 1.2 g
  KIDNEY_TOTAL: 2.4 g
  LIVER: 13.1 g
  A/G: 1.8
  ALP: 899 IU/L
  ALT: 40.8 IU/L
[5]
  TERMINAL_BW: 316.7 g
  APTT: 17.7 s
  Bas: 0%
  Eos: 1.4%
  Fbg: 221 mg/dL
  Hb: 15.2 g/dL
  Ht: 44.6%
  Lym: 63.8%
  MCH: 21.4 pg
  MCHC: 34.2%
  MCV: 62.6 fL
  Mono: 4.4%
  Neu: 30.4%
  PT: 11.8 s
  Plat: 131.1 x10_4/uL
  RBC: 712 x10_4/ul
  Ret: 4.9%
  WBC: 203.6 x10_2/uL
  KIDNEY_L: 1.4 g
  KIDNEY_R: 1.4 g
  KIDNEY_TOTAL: 2.8 g
  LIVER: 16 g
[6]
  TERMINAL_BW: 405.2 g
  APTT: 16.9 s
  Bas: 0%
  Eos: 1.6%
  Fbg: 228.4 mg/dL
  Hb: 15.9 g/dL
  Ht: 46.2%
  Lym: 72.4%
  MCH: 20.4 pg
  MCHC: 34.4%
  MCV: 59.3 fL
  Mono: 4.8%
  Neu: 21.2%
  PT: 11.7 s
  Plat: 140.7 x10_4/uL
  RBC: 780.4 x10_4/ul
  Ret: 7.8%
  WBC: 170.4 x10_2/uL
  KIDNEY_L: 1.6 g
  KIDNEY_R: 1.6 g
  KIDNEY_TOTAL: 3.2 g
  LIVER: 18.7 g

Source: ChEMBL document CHEMBL3885861, “Open TG-GATES”
